# Measurements as given in PubChem BioAssay AID2060896 (Molecular Pharmacology Branch, DTP, NCI, 2025).
# System: 941728-121-R-J1-PDC complex spheroid viability
# Assay: Anticancer human tumor 941728-121-R-J1-PDC patient-derived lung adenocarcinoma cell line growth inhibition [RAS]
# Details: for IC50: curve of first compound; for viability, T/C: stronger effect = lower value
# Method in brief: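 Multi-cell-type spheroids: tumor cells plus HUVEC endothelial cells and mesenchymal stem cells. RAS-pathway inhibitors were combined with targeted agents, each dosed in half-log steps down from clinical Cmax, or from 10 microM when Cmax was unknown.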
# [1] = second compound 0.000949 µM, first compound 0.0316 µM
# [2] = second compound 0.000949 µM, first compound 0.1 µM
# [3] = second compound 0.000949 µM, first compound 0.316 µM
# [4] = second compound 0.000949 µM, first compound 1 µM
# [5] = second compound 0.000949 µM, first compound 3.16 µM
# [6] = second compound 0.000949 µM, first compound 10 µM
# [7] = second compound 0.003 µM, first compound 0.0316 µM
# [8] = second compound 0.003 µM, first compound 0.1 µM
# [9] = second compound 0.003 µM, first compound 0.316 µM
# [10] = second compound 0.003 µM, first compound 1 µM
# [11] = second compound 0.003 µM, first compound 3.16 µM
# [12] = second compound 0.003 µM, first compound 10 µM
# [13] = second compound 0.00949 µM, first compound 0.0316 µM
# [14] = second compound 0.00949 µM, first compound 0.1 µM
# [15] = second compound 0.00949 µM, first compound 0.316 µM
# [16] = second compound 0.00949 µM, first compound 1 µM
# [17] = second compound 0.00949 µM, first compound 3.16 µM
# [18] = second compound 0.00949 µM, first compound 10 µM
# [19] = second compound 0.03 µM, first compound 0.0316 µM
# [20] = second compound 0.03 µM, first compound 0.1 µM
# [21] = second compound 0.03 µM, first compound 0.316 µM
# [22] = second compound 0.03 µM, first compound 1 µM
# [23] = second compound 0.03 µM, first compound 3.16 µM
# [24] = second compound 0.03 µM, first compound 10 µM
# [25] = second compound 0.0949 µM, first compound 0.0316 µM
# [26] = second compound 0.0949 µM, first compound 0.1 µM
# [27] = second compound 0.0949 µM, first compound 0.316 µM
# [28] = second compound 0.0949 µM, first compound 1 µM
# [29] = second compound 0.0949 µM, first compound 3.16 µM
# [30] = second compound 0.0949 µM, first compound 10 µM
# [31] = second compound 0.3 µM, first compound 0.0316 µM
# [32] = second compound 0.3 µM, first compound 0.1 µM
# [33] = second compound 0.3 µM, first compound 0.316 µM
# [34] = second compound 0.3 µM, first compound 1 µM
# [35] = second compound 0.3 µM, first compound 3.16 µM
# [36] = second compound 0.3 µM, first compound 10 µM
# 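Further: spheroids exposed to compounds for 7 days before readout.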
# 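Wherever viability, T/C is given: 100% = DMSO vehicle control viability.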
smiles,measurement,setting,value
CC(C)NCC(C(=O)N1CCN(c2ncnc3c2C(C)CC3O)CC1)c1ccc(Cl)cc1 (stereo not drawn) + CCn1c(-c2cc(N3CCN(C)CC3)cnc2C(C)OC)c2c3cc(ccc31)-c1csc(n1)CC(NC(=O)C1CC1C)C(=O)N1CCCC(N1)C(=O)OCC(C)(C)C2,IC50,second compound 0.000949 µM,< 31.6 nM
same,IC50,second compound 0.003 µM,< 31.6 nM
same,IC50,second compound 0.00949 µM,< 31.6 nM
same,IC50,second compound 0.03 µM,< 31.6 nM
same,IC50,second compound 0.0949 µM,< 31.6 nM
same,IC50,second compound 0.3 µM,< 31.6 nM
same,"viability, T/C",[1],28.7%
same,"viability, T/C",[2],28.3%
same,"viability, T/C",[3],18.8%
same,"viability, T/C",[4],20.1%
same,"viability, T/C",[5],19%
same,"viability, T/C",[6],10.4%
same,"viability, T/C",[7],22.7%
same,"viability, T/C",[8],23.5%
same,"viability, T/C",[9],16.5%
same,"viability, T/C",[10],20.5%
same,"viability, T/C",[11],14.6%
same,"viability, T/C",[12],8.01%
same,"viability, T/C",[13],17.7%
same,"viability, T/C",[14],14.9%
same,"viability, T/C",[15],15.2%
same,"viability, T/C",[16],12.3%
same,"viability, T/C",[17],9.47%
same,"viability, T/C",[18],5.47%
same,"viability, T/C",[19],13.1%
same,"viability, T/C",[20],14%
same,"viability, T/C",[21],14.2%
same,"viability, T/C",[22],11.3%
same,"viability, T/C",[23],8.42%
same,"viability, T/C",[24],4.92%
same,"viability, T/C",[25],12.4%
same,"viability, T/C",[26],13.6%
same,"viability, T/C",[27],11.9%
same,"viability, T/C",[28],12.1%
same,"viability, T/C",[29],5.65%
same,"viability, T/C",[30],5.14%
same,"viability, T/C",[31],11.1%
same,"viability, T/C",[32],14.2%
same,"viability, T/C",[33],13.5%
same,"viability, T/C",[34],10%
same,"viability, T/C",[35],8.91%
same,"viability, T/C",[36],4.65%
CC(C)n1nc(-c2ccc3oc(N)nc3c2)c2c(N)ncnc21 + CCn1c(-c2cc(N3CCN(C)CC3)cnc2C(C)OC)c2c3cc(ccc31)-c1csc(n1)CC(NC(=O)C1CC1C)C(=O)N1CCCC(N1)C(=O)OCC(C)(C)C2,IC50,second compound 0.000949 µM,< 0.316 nM
same,IC50,second compound 0.003 µM,< 0.316 nM
same,IC50,second compound 0.00949 µM,< 0.316 nM
same,IC50,second compound 0.03 µM,< 0.316 nM
same,IC50,second compound 0.0949 µM,< 0.316 nM
same,IC50,second compound 0.3 µM,< 0.316 nM
same,"viability, T/C","second compound 0.000949 µM, first compound 0.000316 µM",25.5%
same,"viability, T/C","second compound 0.000949 µM, first compound 0.001 µM",27.6%
same,"viability, T/C","second compound 0.000949 µM, first compound 0.00316 µM",18.6%
same,"viability, T/C","second compound 0.000949 µM, first compound 0.01 µM",20.2%
same,"viability, T/C",[1],16.9%
same,"viability, T/C",[2],11.1%
same,"viability, T/C","second compound 0.003 µM, first compound 0.000316 µM",24.6%
same,"viability, T/C","second compound 0.003 µM, first compound 0.001 µM",20.8%
same,"viability, T/C","second compound 0.003 µM, first compound 0.00316 µM",16%
same,"viability, T/C","second compound 0.003 µM, first compound 0.01 µM",14.4%
same,"viability, T/C",[7],10.9%
same,"viability, T/C",[8],8.48%
same,"viability, T/C","second compound 0.00949 µM, first compound 0.000316 µM",17.6%
same,"viability, T/C","second compound 0.00949 µM, first compound 0.001 µM",16%
same,"viability, T/C","second compound 0.00949 µM, first compound 0.00316 µM",16.3%
same,"viability, T/C","second compound 0.00949 µM, first compound 0.01 µM",11.6%
same,"viability, T/C",[13],8.78%
same,"viability, T/C",[14],5.45%
same,"viability, T/C","second compound 0.03 µM, first compound 0.000316 µM",13.4%
same,"viability, T/C","second compound 0.03 µM, first compound 0.001 µM",14.6%
same,"viability, T/C","second compound 0.03 µM, first compound 0.00316 µM",13.4%
same,"viability, T/C","second compound 0.03 µM, first compound 0.01 µM",10.7%
same,"viability, T/C",[19],6.44%
same,"viability, T/C",[20],6.86%
same,"viability, T/C","second compound 0.0949 µM, first compound 0.000316 µM",12.7%
same,"viability, T/C","second compound 0.0949 µM, first compound 0.001 µM",14.2%
same,"viability, T/C","second compound 0.0949 µM, first compound 0.00316 µM",12.8%
same,"viability, T/C","second compound 0.0949 µM, first compound 0.01 µM",11.6%
same,"viability, T/C",[25],6.3%
same,"viability, T/C",[26],6.4%
same,"viability, T/C","second compound 0.3 µM, first compound 0.000316 µM",13.4%
same,"viability, T/C","second compound 0.3 µM, first compound 0.001 µM",13.9%
same,"viability, T/C","second compound 0.3 µM, first compound 0.00316 µM",12.9%
same,"viability, T/C","second compound 0.3 µM, first compound 0.01 µM",11.2%
same,"viability, T/C",[31],7.62%
same,"viability, T/C",[32],7.03%
CC(Nc1ccc2c(c1)OCCn1cc(N3C(=O)OCC3C(F)F)nc1-2)C(N)=O (stereo not drawn) + CCn1c(-c2cc(N3CCN(C)CC3)cnc2C(C)OC)c2c3cc(ccc31)-c1csc(n1)CC(NC(=O)C1CC1C)C(=O)N1CCCC(N1)C(=O)OCC(C)(C)C2,IC50,second compound 0.000949 µM,< 31.6 nM
same,IC50,second compound 0.003 µM,< 31.6 nM
same,IC50,second compound 0.00949 µM,< 31.6 nM
same,IC50,second compound 0.03 µM,< 31.6 nM
same,IC50,second compound 0.0949 µM,< 31.6 nM
same,IC50,second compound 0.3 µM,< 31.6 nM
same,"viability, T/C",[1],26%
same,"viability, T/C",[2],23.3%
same,"viability, T/C",[3],18.9%
same,"viability, T/C",[4],21.3%
same,"viability, T/C",[5],20.5%
same,"viability, T/C",[6],12.1%
same,"viability, T/C",[7],19.4%
same,"viability, T/C",[8],15.9%
same,"viability, T/C",[9],13.4%
same,"viability, T/C",[10],14.2%
same,"viability, T/C",[11],11.7%
same,"viability, T/C",[12],7.42%
same,"viability, T/C",[13],14.2%
same,"viability, T/C",[14],10.3%
same,"viability, T/C",[15],11.2%
same,"viability, T/C",[16],9.14%
same,"viability, T/C",[17],7.89%
same,"viability, T/C",[18],5.97%
same,"viability, T/C",[19],12.3%
same,"viability, T/C",[20],10.6%
same,"viability, T/C",[21],10.1%
same,"viability, T/C",[22],8.95%
same,"viability, T/C",[23],11.8%
same,"viability, T/C",[24],6.96%
same,"viability, T/C",[25],11.5%
same,"viability, T/C",[26],8.85%
same,"viability, T/C",[27],9.23%
same,"viability, T/C",[28],8.74%
same,"viability, T/C",[29],7.5%
same,"viability, T/C",[30],6.53%
same,"viability, T/C",[31],11.4%
same,"viability, T/C",[32],9.97%
same,"viability, T/C",[33],9.41%
same,"viability, T/C",[34],6.86%
same,"viability, T/C",[35],6.29%
same,"viability, T/C",[36],6.96%
C[C@@H](NC(=O)c1ncnc(N)c1Cl)c1ncc(C(=O)Nc2cc(C(F)(F)F)c(Cl)cn2)s1 + CCn1c(-c2cc(N3CCN(C)CC3)cnc2C(C)OC)c2c3cc(ccc31)-c1csc(n1)CC(NC(=O)C1CC1C)C(=O)N1CCCC(N1)C(=O)OCC(C)(C)C2,IC50,second compound 0.000949 µM,< 31.6 nM
same,IC50,second compound 0.003 µM,< 31.6 nM
same,IC50,second compound 0.00949 µM,< 31.6 nM
same,IC50,second compound 0.03 µM,< 31.6 nM
same,IC50,second compound 0.0949 µM,< 31.6 nM
same,IC50,second compound 0.3 µM,< 31.6 nM
same,"viability, T/C",[1],28.7%
same,"viability, T/C",[2],30.9%
same,"viability, T/C",[3],22.4%
same,"viability, T/C",[4],34%
same,"viability, T/C",[5],33.6%
same,"viability, T/C",[6],24.5%
same,"viability, T/C",[7],27.8%
same,"viability, T/C",[8],24.4%
same,"viability, T/C",[9],22.4%
same,"viability, T/C",[10],24.9%
same,"viability, T/C",[11],27.9%
same,"viability, T/C",[12],20%
same,"viability, T/C",[13],19.1%
same,"viability, T/C",[14],15.5%
same,"viability, T/C",[15],21.6%
same,"viability, T/C",[16],21.9%
same,"viability, T/C",[17],19.7%
same,"viability, T/C",[18],17.9%
same,"viability, T/C",[19],14.1%
same,"viability, T/C",[20],16.5%
same,"viability, T/C",[21],17.1%
same,"viability, T/C",[22],15.4%
same,"viability, T/C",[23],15.4%
same,"viability, T/C",[24],14.9%
same,"viability, T/C",[25],13.6%
same,"viability, T/C",[26],15.7%
same,"viability, T/C",[27],14.3%
same,"viability, T/C",[28],14.3%
same,"viability, T/C",[29],11.7%
same,"viability, T/C",[30],13.6%
same,"viability, T/C",[31],13.8%
same,"viability, T/C",[32],13.7%
same,"viability, T/C",[33],15.6%
same,"viability, T/C",[34],13.8%
same,"viability, T/C",[35],12.3%
same,"viability, T/C",[36],11.9%
